For one assay, the target named is T1, delF508-CFTR (Homo sapiens, UniProt P13569, DEL508-508).
T1 construct: functional activity of the CFTR channel (Chloride ion transport) in patient derived primary human bronchial epithelial cells; host or cells: patient-derived primary human bronchial epithelial cells (HBECs), delF508-CFTR
In words: delF508-CFTR functional activity in primary human bronchial epithelial cells (HBECs), Multi-Transepithelial Clamp Circuit (MTECC-24) assay, equivalent short circuit current. Format: cell-based. The settings on record: primary CF HBECs; for MTECC24 CFHBEC-Amax %: relative to reference combination 2 μM 3-(6-(1-(2,2-difluorobenzo[d][1,3]dioxol-5-yl)cyclopropane-1-carboxamido)-3-methylpyridin-2-yl)benzoic acid (24 h) + 0.5 μM N-(2,4-di-tert-butyl-5-hydroxyphenyl)-4-oxo-1,4-dihydroquinoline-3-carboxamide; for pEC50: test compound added 24 h before assay, potentiator (S)-3-amino-6-methoxy-N-(3,3,3-trifluoro-2-hydroxy-2-methylpropyl)-5-(trifluoromethyl)picolinamide present at assay, mean of at least two replicates, read-out: MTECC24 CFHBEC-EC50. Put shortly: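 Patient-derived delF508 HBECs, grown at air-liquid interface about two weeks, were corrected with compound basolaterally for 24 h. Compound was then re-added apically and basolaterally in HEPES pH7.4 assay medium, with sequential modulators including forskolin and the picolinamide potentiator. Ieq was recorded, normalised to 0.1% DMSO wells, and EC50 fitted from 10-point curves.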

A further assay has as its target T2, delF508-CFTR-HRP (Homo sapiens, UniProt P13569, DEL508-508).
T2 construct: expressed in transfected cells
In words: Measurement of delF508-CFTR-HRP surface expression in CFBE41o- cells (HRP luminescence).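 As to DelF508-CFTR-HRP Amax %: percent efficacy relative to a reference CFTR corrector compound.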 Format: cell-based. The settings on record: for Emax: CFBE41o-, read-out: DelF508-CFTR-HRP Amax %; for pEC50: mean of at least two replicates. Put shortly:
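Stably transfected CFBE41o- cells carrying HRP in the fourth extracellular loop of delF508-CFTR, induced with 500 ng/mL doxycycline for 48 h, then compound-treated 24 h at 37° C (10-point, 3-fold, top 10 μM). Surface HRP detected by luminescent substrate; EC50 from logistic fit, triplicates, normalized to lowest-concentration median.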

pEC50: −log10 of the molar value.

Usually pEC50 stands for the EC50 on a negative log10 scale, so that one unit is a factor of ten.

T1 sequence (P13569 with tags, fused parts or gaps DEL508-508): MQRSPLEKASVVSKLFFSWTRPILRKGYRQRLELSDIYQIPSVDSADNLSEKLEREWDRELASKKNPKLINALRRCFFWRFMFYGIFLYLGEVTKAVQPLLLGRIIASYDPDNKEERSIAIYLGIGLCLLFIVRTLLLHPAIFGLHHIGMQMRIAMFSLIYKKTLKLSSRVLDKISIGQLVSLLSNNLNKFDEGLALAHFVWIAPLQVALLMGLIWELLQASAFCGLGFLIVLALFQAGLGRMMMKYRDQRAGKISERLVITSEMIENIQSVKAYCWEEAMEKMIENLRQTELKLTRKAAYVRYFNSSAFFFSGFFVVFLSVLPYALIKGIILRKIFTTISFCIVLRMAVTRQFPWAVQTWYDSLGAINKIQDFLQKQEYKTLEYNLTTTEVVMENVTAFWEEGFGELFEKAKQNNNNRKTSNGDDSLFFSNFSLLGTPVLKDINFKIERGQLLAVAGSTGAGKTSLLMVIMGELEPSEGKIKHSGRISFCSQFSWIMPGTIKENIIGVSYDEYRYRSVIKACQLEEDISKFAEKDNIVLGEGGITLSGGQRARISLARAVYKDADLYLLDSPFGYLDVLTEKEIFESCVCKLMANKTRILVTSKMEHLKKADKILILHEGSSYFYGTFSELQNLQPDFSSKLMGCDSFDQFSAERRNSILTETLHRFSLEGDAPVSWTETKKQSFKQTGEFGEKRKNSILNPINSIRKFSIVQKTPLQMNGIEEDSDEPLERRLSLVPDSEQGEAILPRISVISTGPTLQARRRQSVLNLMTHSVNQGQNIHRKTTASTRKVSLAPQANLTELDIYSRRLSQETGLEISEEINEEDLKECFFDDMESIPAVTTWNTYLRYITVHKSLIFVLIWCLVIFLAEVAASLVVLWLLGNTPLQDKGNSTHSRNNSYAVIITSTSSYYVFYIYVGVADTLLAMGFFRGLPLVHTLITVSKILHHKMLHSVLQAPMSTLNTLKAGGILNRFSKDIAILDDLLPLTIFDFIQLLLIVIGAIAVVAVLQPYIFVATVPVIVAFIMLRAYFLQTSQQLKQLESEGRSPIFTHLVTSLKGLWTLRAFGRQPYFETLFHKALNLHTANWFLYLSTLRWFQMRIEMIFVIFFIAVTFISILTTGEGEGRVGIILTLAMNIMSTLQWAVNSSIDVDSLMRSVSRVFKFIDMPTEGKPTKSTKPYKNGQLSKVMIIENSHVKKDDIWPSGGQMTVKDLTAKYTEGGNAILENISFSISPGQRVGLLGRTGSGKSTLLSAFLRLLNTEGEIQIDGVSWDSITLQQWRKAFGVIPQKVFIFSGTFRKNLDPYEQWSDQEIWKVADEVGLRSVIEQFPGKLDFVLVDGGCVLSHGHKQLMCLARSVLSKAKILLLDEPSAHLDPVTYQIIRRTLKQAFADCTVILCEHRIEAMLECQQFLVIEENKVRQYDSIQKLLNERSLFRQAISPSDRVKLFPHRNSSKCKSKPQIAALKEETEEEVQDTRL
T2 sequence (P13569 with tags, fused parts or gaps DEL508-508): as above

Take `Cc1ccc(C2CCCC2)c(OC2(C(=O)NS(=O)(=O)c3cccc(NC[C@H](C)O)n3)CC2)c1` [Example 4-5, (S)-1-(2-Cyclopentyl-5-methylphenoxy)-N-((6-((2-hydroxypropyl)amino)pyridin-2-yl)sulfonyl)cyclopropane-1-carboxamide]: at delF508-CFTR, the “MTECC24 CFHBEC-Amax %” value is 82% and the pEC50 was 8.00. In addition, on delF508-CFTR-HRP, the Emax was determined as 590% and the pEC50 was 5.55.

In the case of `Cc1ccc(C2CCC3(CCCC3)OC2)c(OC2(C(=O)NS(=O)(=O)c3cccc(N4CCC(O)(c5ccc(Cl)cc5)CC4)n3)CC2)c1` (single isomer, unassigned) [Example 11-3-1, N-((6-(4-(4-chlorophenyl)-4-hydroxypiperidin-1-yl)pyridin-2-yl)sulfonyl)-1-(5-methyl-2-(6-oxaspiro[4.5]decan-8-yl)phenoxy)cyclopropane-1-carboxamide], at delF508-CFTR, the “MTECC24 CFHBEC-Amax %” value stood at 100.3% and the pEC50 was 6.93. Moreover, at delF508-CFTR-HRP, the “DelF508-CFTR-HRP Amax %” value amounted to 380.3% and the pEC50 is 6.17.

For `Cc1ccc(C2CCCCC2)c(OC2(C(=O)NS(=O)(=O)c3cccc(N4CCC5(CC4)CC(=O)c4cc(F)ccc4O5)n3)CC2)c1` [Example 2-28, 1-(2-Cyclohexyl-5-methylphenoxy)-N-((6-(6-fluoro-4-oxospiro[chroman-2,4′-piperidin]-1′-yl)pyridin-2-yl)sulfonyl)cyclopropanecarboxamide], at delF508-CFTR, the “MTECC24 CFHBEC-Amax %” value worked out at 83% and the pEC50 was 7.31. In addition, on delF508-CFTR-HRP, the Emax is 429% and the pEC50 was 6.28.

As for `O=C(NS(=O)(=O)c1cccc(N2CC[C@H](O)C2)n1)C1(Oc2cc(Cl)ccc2C2CC3(CCC3)C2)CC1` [Example 7-3, (S)-1-(5-chloro-2-(spiro[3.3]heptan-2-yl)phenoxy)-N-((6-(3-hydroxypyrrolidin-1-yl)pyridin-2-yl)sulfonyl)cyclopropanecarboxamide], on delF508-CFTR, the “MTECC24 CFHBEC-Amax %” value was 135.1% and the pEC50 is 6.88. At delF508-CFTR-HRP, the Emax is 794% and the pEC50 was 5.99.

`Cc1ccc([C@H]2CC[C@H](F)CC2)c(OC2(C(=O)NS(=O)(=O)c3cccc(N4CC(C)(O)C4)n3)CC2)c1` (single isomer, unassigned) [Example 4-1, 1-(2-(Trans-4-fluorocyclohexyl)-5-methylphenoxy)-N-((6-(3-hydroxy-3-methylazetidin-1-yl)pyridin-2-yl)sulfonyl)cyclopropane-1-carboxamide]: at delF508-CFTR, the “MTECC24 CFHBEC-Amax %” value turned out to be 84% and the pEC50 is 6.65. In addition, at delF508-CFTR-HRP, the Emax is 297% and the negative-log EC50 (pEC50) is 5.39.

`Cc1ccc(C2CCCCC2)c(OC2(C(=O)NS(=O)(=O)c3cccc(N4CCOC[C@H]4C)n3)CC2)c1` [Example 2-26, (R)-1-(2-Cyclohexyl-5-methylphenoxy)-N-((6-(3-methylmorpholino)pyridin-2-yl)sulfonyl)cyclopropanecarboxamide]: at delF508-CFTR, the “MTECC24 CFHBEC-Amax %” value was 89% and the pEC50 is 8.22. On delF508-CFTR-HRP, the Emax was determined as 500% and the pEC50 was 5.85.

Consider `Cc1ccc(C2CCCCC2)c(OC2(C(=O)NS(=O)(=O)c3cccc(N4CCO[C@H](C)C4)n3)CC2)c1` [Example 2-53, (R)-1-(2-Cyclohexyl-5-methylphenoxy)-N-((6-(2-methylmorpholino)pyridin-2-yl)sulfonyl)cyclopropane-1-carboxamide], for which, on delF508-CFTR, the “MTECC24 CFHBEC-Amax %” value was 82% and the pEC50 is 8.70. At delF508-CFTR-HRP, the Emax is 416% and the pEC50 is 5.80.

Consider `Cc1ccc(N2CCC(C)(C)CC2)c(OC2(C(=O)NS(=O)(=O)c3cccc(N4CC[C@H](O)C4)n3)CC2)c1` [Example 10-4, (S)-1-(2-(4,4-dimethylpiperidin-1-yl)-5-methylphenoxy)-N-((6-(3-hydroxypyrrolidin-1-yl)pyridin-2-yl)sulfonyl)cyclopropanecarboxamide], for which, at delF508-CFTR, the “MTECC24 CFHBEC-Amax %” value is given as 103.3% and the pEC50 is 6.32. Moreover, at delF508-CFTR-HRP, the Emax amounted to 717% and the pEC50 is 5.58.

For `O=C(NS(=O)(=O)c1cccc(N2CCC(O)(C(F)(F)F)CC2)n1)C1(Oc2cc(Cl)ccc2C2CC3(CCC3)C2)CC1` [Example 7-1, 1-(5-Chloro-2-(spiro[3.3]heptan-2-yl)phenoxy)-N-((6-(4-hydroxy-4-(trifluoromethyl)piperidin-1-yl)pyridin-2-yl)sulfonyl)cyclopropanecarboxamide], on delF508-CFTR, the “MTECC24 CFHBEC-Amax %” value turned out to be 203.8% and the pEC50 was 6.88. Further, on delF508-CFTR-HRP, the Emax amounted to 445% and the pEC50 was 6.31.

For `[2H]C1([2H])OC([2H])([2H])C([2H])([2H])N(c2cccc(S(=O)(=O)NC(=O)C3(Oc4cc(C)ccc4C4CCCCC4)CC3)n2)C1([2H])[2H]` [Example 2-39, 1-(2-Cyclohexyl-5-methylphenoxy)-N-((6-(morpholino-d8)pyridin-2-yl)sulfonyl)cyclopropane-1-carboxamide], at delF508-CFTR, the “MTECC24 CFHBEC-Amax %” value worked out at 67% and the negative logarithm of the EC50 (pEC50) was 8.70. Further, at delF508-CFTR-HRP, the Emax turned out to be 383% and the pEC50 was 5.74.

As to `Cc1ccc(C2CCCCC2)c(OC2(C(=O)NS(=O)(=O)c3cccc(N[C@H]4C[C@H](O)C4)n3)CC2)c1` [Example 2-35, 1-(2-Cyclohexyl-5-methylphenoxy)-N-((6-((trans-3-hydroxycyclobutyl)amino)pyridin-2-yl)sulfonyl)cyclopropane-1-carboxamide], at delF508-CFTR, the “MTECC24 CFHBEC-Amax %” value was 76% and the pEC50 is 6.97. Further, at delF508-CFTR-HRP, the Emax turned out to be 235% and the negative-log EC50 (pEC50) is 5.62.

Regarding `Cc1ccc(C2CCCCC2)c(OC2(C(=O)NS(=O)(=O)c3cccc(N)n3)CC2)c1` [Example 1-1, N-((6-Aminopyridin-2-yl)sulfonyl)-1-(2-cyclohexyl-5-methylphenoxy)cyclopropane-1-carboxamide], at delF508-CFTR, the “MTECC24 CFHBEC-Amax %” value is reported as 91% and the pEC50 was 7.82. Moreover, on delF508-CFTR-HRP, the Emax amounted to 421% and the pEC50 was 5.70.

Regarding `Cc1ccc(-c2cccc(C(F)(F)F)c2)c(OC2(C(=O)NS(=O)(=O)c3cccc(N4CC[C@H](O)C4)n3)CC2)c1` [Example 5-1, (S)-N-((6-(3-Hydroxypyrrolidin-1-yl)pyridin-2-yl)sulfonyl)-1-((4-methyl-3′-(trifluoromethyl)-[1,1′-biphenyl]-2-yl)oxy)cyclopropane-1-carboxamide], on delF508-CFTR, the “MTECC24 CFHBEC-Amax %” value was 88% and the pEC50 was 7.80. At delF508-CFTR-HRP, the Emax was found to be 503% and the pEC50 is 5.71.

In the case of `CC1(C)CCN(c2ccc(Cl)cc2OC2(C(=O)NS(=O)(=O)c3cccc(N4CC[C@H](O)C4)n3)CC2)CC1` [Example 8-1, (S)-1-(5-Chloro-2-(4,4-dimethylpiperidin-1-yl)phenoxy)-N-((6-(3-hydroxypyrrolidin-1-yl)pyridin-2-yl)sulfonyl)cyclopropane-1-carboxamide], at delF508-CFTR, the “MTECC24 CFHBEC-Amax %” value worked out at 197.2% and the pEC50 was 6.43. The molecule further gave a pEC50 at delF508-CFTR-HRP of 5.76.

Turning to `CC1(O)CCN(c2cccc(S(=O)(=O)NC(=O)C3(Oc4cc(Cl)ccc4C4CC5(CCC5)C4)CC3)n2)CC1` [Example 7-12, 1-(5-Chloro-2-(spiro[3.3]heptan-2-yl)phenoxy)-N-((6-(4-hydroxy-4-methylpiperidin-1-yl)pyridin-2-yl)sulfonyl)cyclopropane-1-carboxamide], at delF508-CFTR, the “MTECC24 CFHBEC-Amax %” value is recorded as 152.6% and the pEC50 is 6.71. In addition, at delF508-CFTR-HRP, the Emax came to 529% and the negative-log EC50 (pEC50) was 5.96.

The record behind these values is US20220033407A1, “N-(pyridin-2-ylsulfonyl)cyclopropanecarboxamide Derivatives and their Use in the Treatment of Disease” (NOVARTIS AG, priority 2018, published 2022).
